Test results reported in US6713057B1, “Compositions and methods for modulating serum cholesterol” (The Johns Hopkins University, priority 1999, dated 2004).

What was measured:
HH-25 cells = test: DNA laddering assay (apoptosis) in hepatocytes; details: 1 hour treatment, concentrations as in maturation studies, refed 6 hours
SREBP-1 [1] = test: Indirect immunofluorescence of SREBP-1 subcellular localization; assay type: cell-based, human; details: 30 minutes after initiating treatment; TNF-α 10 ng/ml, sphingomyelinase 100 mUnits, C2-ceramide 10 μM
Procedure: FIGS. 5A-5D show indirect immunofluorescence of SREBP-1. FIGS. 5A-5D are discussed in more detail as follows. SREBP-1 was visualized with rabbit polyclonal antibodies directed towards the N-terminal DNA binding domain which is common to both the precursor and mature forms. Cells were maintained in media supplemented with 1 μg/ml 25-hydroxycholesterol and 15 μg/ml cholesterol for 24 hours before the experiment. Immunofluorescence was performed as described. All magnifications are 40× and all photographs were taken of samples that were fixed 30 minutes after initiating treatment. FIG. 5A) Control cells, FIG. 5B) Cells treated with TNF-α (10 ng/ml), FIG. 5C) Cells treated with sphingomyelinase (100 mUnits), FIG. 5D) Cells treated with C2-ceramide (10 μM).
Cultured HH-25 cells were grown on coverslips and treated as described. After treatment, the cells were washed 3×5 minutes with PBS containing 1 mM MgCl2 and 0.1 mM CaCl2 (solution A). The cells were fixed with 3% paraformaldehyde in solution A for 10 minutes and permeabilized with 0.5% Triton X-100 in solution A for 6 minutes at room temperature. The coverslips were then washed 3×5 minutes with solution A.
Primary antibody (anti-SREBP1) was used at a dilution of […] in PBS and applied for 1 hour with gentle shaking. The cells were washed as above and a FITC conjugated anti-rabbit IgG secondary antibody, was applied for ½ hour according to the instructions of the manufacturer. The coverslips were washed, mounted on microscope slides and were viewed and photographed at the indicated magnification on a Zeiss Axiovert 25 fluorescence microscope.

SREBP-1 [2] = test: Electrophoretic mobility shift assay, SREBP-1 binding to SRE probe; assay type: cell-based, human; details: for amount of probe bound (electrophoretically retarded) by mature SREBP-1: TNF-α 10 ng/ml, sphingomyelinase 100 mUnits, C2-ceramide 10 μM
Procedure: FIGS. 6A-6D show electrophoretic mobility shift assays. FIGS. 6A-D are explained in more detail as follows. Cells were maintained in sterol supplemented media. Nuclear pellets were prepared and assayed as described in materials and methods. Probe that has been bound by mature SREBP-1 is indicated as “Bound”. Unbound probe is indicated as “Free”. The kinetics (in minutes) of SREBP-1 binding to the probe in response to treatment with (FIG. 6A). TNF-α (10 ng/ml), (FIG. 6B) sphingomyelinase (100 mUnits) and (FIG. 6C) C2-ceramide ([…]). (FIG. 6D). The cells were treated with either TNF-α (10 ng/ml), sphingomyelinase (100 mUnits) or C2-ceramide (10 μM) for 15 minutes. Supershift assays were then performed with antibodies raised against the DNA binding domain of SREBP-1. The presence or absence of antibody is indicated by (+) and (−) respectively. Pre-immune IgG was used as a control.
Gel mobility shift assays were performed as follows. Each 20 μl reaction mixture contained 8-10 μg of nuclear protein plus a α-[^32P]-labeled 25-base pair oligonucleotide probe containing the SREBP-binding site (14) in binding buffer (10 mM Hepes, pH 7.5, 0.5 mM spermidine, 0.15 mM EDTA, 10 mM dithiothreitol, 0.35 mM sucrose). The reaction mixture was incubated at room temperature for 15 min and loaded directly onto a 6.5% polyacrylamide (49:0.6 acrylamide/bisacrylamide) gel in a buffer of 25 mM Tris borate (pH 8.0), 0.25 mM EDTA. In some experiments, antisera specific for SREBP or preimmune sera were added to reaction mixtures to determine the composition of protein-probe complexes. For these “supershift” assays, extracts were incubated with 1 μl of preimmune sera or an equal volume of anti-SREBP antisera at 4° C. for 30 min prior to addition of α-[^32P]-labeled probe. In all experiments, proteins were separated by electrophoresis at 200 V for 2 h at room temperature. Gels were dried and exposed to Kodak XAR film with intensifying screens. Assays were repeated with nuclear extracts obtained from three unique experiments and evaluated by phosphoimage analysis to ensure reproducibility of results.

Row | Molecule | induction of apoptosis (160 bp DNA ladder) (HH-25 cells) | subcellular localization of SREBP-1 (staining pattern) (SREBP-1 [1]) | rate of accumulation of active, nuclear SREBP-1 compared with TNF-α or sphingomyelinase (SREBP-1 [2]) | amount of probe bound (electrophoretically retarded) by mature SREBP-1 (SREBP-1 [2])
1 | CCCCCCCCCCCCC/C=C/[C@@H](O)[C@H](CO)NC(C)=O [C2-ceramide, N-acetylsphingosine, reference compound] | did not induce apoptosis | intense nuclear staining and little extra-nuclear staining | more rapid accumulation | increases
2 | TNF-α | did not induce apoptosis | intense nuclear staining and little extra-nuclear staining | – | increases with time
